Results reported in US20110065782A1, “METHODS OF IDENTIFYING COMPOUNDS THAT INHIBIT THE ACTIVATION OF A BIOMOLECULE AND METHODS OF TREATMENT USING THE COMPOUNDS” (priority 2009, published 2011).

Assays:
calmodulin (CaM) = molecular target: T1, calmodulin (CaM) (Homo sapiens, UniProt P0DP23); assay: CaM binding of peptide P233-254 probed by steady-state tryptophan anisotropy fluorescence; details: 10 μM TUAdiCl; for fluorescence anisotropy (r) of P233-254 peptide: peptide 2 μM, calcium present
T1 construct: made in house

Edema Factor (EF) = Edema Factor (EF) (Bacillus anthracis, UniProt P40136); assay: biochemical; format: biochemical
Edema Factor (EF), sequence (P40136 34-800 limits assumed): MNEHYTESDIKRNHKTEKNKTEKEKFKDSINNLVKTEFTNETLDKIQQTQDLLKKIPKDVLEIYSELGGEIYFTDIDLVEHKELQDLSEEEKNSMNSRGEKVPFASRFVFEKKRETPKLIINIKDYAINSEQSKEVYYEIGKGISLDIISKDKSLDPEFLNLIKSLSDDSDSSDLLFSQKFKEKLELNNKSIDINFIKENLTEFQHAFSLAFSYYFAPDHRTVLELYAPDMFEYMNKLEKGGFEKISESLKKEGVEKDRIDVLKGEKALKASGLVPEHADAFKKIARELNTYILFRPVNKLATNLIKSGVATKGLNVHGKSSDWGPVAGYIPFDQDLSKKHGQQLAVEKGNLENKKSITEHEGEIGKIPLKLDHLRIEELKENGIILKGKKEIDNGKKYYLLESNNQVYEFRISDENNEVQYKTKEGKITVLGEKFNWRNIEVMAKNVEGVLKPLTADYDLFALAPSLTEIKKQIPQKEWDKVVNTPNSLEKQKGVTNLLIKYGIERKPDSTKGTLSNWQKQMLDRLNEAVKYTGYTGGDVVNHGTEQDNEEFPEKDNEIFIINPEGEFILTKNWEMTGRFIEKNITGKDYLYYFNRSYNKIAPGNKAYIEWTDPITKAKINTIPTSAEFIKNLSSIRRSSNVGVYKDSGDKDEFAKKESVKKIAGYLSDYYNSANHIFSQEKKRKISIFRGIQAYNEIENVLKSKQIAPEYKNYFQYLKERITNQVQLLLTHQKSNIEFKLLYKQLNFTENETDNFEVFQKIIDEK

preformed EF-CaM complex = preformed EF-CaM complex (Bacillus anthracis, UniProt P40136); format: biochemical
preformed EF-CaM complex, sequence (P40136 whole entry, looked up, one chain of several): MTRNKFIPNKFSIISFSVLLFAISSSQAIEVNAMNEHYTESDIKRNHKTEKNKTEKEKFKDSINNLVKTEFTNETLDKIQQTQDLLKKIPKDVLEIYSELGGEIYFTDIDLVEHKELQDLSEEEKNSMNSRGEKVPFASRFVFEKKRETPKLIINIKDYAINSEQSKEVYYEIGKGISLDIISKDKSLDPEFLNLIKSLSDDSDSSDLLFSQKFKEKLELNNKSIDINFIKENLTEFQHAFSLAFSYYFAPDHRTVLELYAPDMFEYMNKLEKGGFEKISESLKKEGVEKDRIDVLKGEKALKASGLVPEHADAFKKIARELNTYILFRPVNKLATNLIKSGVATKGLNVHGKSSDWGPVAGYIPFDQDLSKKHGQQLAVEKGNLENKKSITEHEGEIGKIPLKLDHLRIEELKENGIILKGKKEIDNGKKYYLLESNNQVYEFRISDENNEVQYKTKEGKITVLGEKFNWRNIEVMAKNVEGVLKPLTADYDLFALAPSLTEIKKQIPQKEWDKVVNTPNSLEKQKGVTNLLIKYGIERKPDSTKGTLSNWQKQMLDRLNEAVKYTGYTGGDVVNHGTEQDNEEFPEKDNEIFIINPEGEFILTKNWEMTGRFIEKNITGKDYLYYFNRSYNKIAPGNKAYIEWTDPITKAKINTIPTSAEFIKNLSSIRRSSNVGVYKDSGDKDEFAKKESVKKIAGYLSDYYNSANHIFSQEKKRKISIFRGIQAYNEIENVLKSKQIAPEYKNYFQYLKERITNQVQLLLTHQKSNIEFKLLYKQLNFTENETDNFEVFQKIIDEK

[1] = molecular target: T2, adenylate cyclase toxin (CyaA) (Bordetella pertussis, UniProt P0DKX7); assay: Colorimetric adenylate cyclase enzymatic assay on CyaA; format: biochemical; details: concentration not given
T2 construct: made in house
T2 sequence (P0DKX7 whole entry, looked up): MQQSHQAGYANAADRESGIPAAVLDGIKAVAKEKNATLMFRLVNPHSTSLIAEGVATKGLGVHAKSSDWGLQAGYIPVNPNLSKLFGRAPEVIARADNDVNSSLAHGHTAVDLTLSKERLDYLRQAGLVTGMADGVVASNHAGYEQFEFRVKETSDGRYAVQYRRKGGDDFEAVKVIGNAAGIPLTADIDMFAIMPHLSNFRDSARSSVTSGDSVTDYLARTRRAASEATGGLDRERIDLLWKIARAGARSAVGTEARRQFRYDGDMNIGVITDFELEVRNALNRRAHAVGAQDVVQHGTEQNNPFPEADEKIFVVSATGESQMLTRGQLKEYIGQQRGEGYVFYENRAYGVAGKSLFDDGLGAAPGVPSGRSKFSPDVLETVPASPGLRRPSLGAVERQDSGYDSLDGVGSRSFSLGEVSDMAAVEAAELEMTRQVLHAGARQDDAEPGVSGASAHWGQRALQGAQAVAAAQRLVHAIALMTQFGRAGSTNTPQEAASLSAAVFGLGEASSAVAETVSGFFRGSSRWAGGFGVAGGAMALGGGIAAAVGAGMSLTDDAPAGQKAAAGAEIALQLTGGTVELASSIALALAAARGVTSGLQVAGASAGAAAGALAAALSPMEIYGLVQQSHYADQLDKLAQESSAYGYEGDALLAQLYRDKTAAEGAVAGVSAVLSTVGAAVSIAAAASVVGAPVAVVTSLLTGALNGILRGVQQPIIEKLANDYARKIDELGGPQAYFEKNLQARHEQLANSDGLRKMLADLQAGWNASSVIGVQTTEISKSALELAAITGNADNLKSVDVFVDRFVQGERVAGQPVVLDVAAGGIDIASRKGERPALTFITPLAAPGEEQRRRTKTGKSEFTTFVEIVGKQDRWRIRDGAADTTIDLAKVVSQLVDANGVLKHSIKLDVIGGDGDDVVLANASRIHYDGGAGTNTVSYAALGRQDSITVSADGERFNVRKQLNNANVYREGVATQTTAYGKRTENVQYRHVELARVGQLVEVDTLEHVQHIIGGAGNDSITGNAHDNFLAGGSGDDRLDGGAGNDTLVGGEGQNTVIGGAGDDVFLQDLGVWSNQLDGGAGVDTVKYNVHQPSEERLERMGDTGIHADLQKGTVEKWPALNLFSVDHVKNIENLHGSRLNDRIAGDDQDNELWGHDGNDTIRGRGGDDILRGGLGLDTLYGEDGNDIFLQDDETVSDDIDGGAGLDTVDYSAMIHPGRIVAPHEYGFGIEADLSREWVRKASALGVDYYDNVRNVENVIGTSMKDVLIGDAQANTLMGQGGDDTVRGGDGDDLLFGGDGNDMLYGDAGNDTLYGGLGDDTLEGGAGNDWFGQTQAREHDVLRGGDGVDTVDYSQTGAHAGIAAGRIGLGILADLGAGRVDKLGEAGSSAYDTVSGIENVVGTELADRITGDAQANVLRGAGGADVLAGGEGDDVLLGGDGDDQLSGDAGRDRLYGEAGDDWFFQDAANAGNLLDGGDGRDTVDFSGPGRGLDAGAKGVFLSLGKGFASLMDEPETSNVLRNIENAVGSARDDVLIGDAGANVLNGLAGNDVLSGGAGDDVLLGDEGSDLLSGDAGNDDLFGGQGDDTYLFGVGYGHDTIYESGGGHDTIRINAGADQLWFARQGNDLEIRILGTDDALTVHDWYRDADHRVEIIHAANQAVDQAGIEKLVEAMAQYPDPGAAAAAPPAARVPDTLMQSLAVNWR

Row | Structure (SMILES) | effect on the ability of CaM to associate with CaM-binding peptide from CyaA (calmodulin (CaM)) | fluorescence anisotropy (r) of P233-254 peptide (calmodulin (CaM); with equimolar CaM) | fluorescence anisotropy (r) of P233-254 peptide (calmodulin (CaM); without CaM) | IC50 (Edema Factor (EF)) [µM] | concentration at which EF activity is inhibited (Edema Factor (EF)) | inhibition at 100 µM (Edema Factor (EF)) [%] | inhibition at 10 µM (Edema Factor (EF); read-out: inhibition of EF enzymatic activity) [%] | inhibition of enzymatic activity of the preformed EF-CaM complex (preformed EF-CaM complex) | inhibition of CyaA activity [1]
1 | O=C(Nc1ccc(Cl)c(Cl)c1)Nc1cc(-c2ccccc2)sc1C(=O)O [TUAdiCl] | no effect | 0.095 | 0.027 | 2 to 3 | less than 10 μM | 98 ± 6 | > 80 | significantly inhibit | –
2 | O=C(Nc1ccc(Cl)c(Cl)c1)Nc1cc(-c2ccccc2)sc1C(=O)O [drawing 10] | – | – | – | – | – | – | – | – | inhibit CyaA activity
